Tests used:
SK-MES-1 = assay: Anticancer activity against human SK-MES-1 cells; format: functional, cell-based
[1] = Total plasma clearance in monkey at 0.1 mg/kg, iv; format: ADME, organism-based, Macaca mulatta; settings: rhesus monkey
[2] = Antitumour activity against patient-derived human PAT121 cells xenografted in mouse model at 1.6 mg/kg, po bid, 5 days on and 2 days off for 2 weeks; format: functional; settings: PAT121, 120 h, time 5 day, read-out: TGI
A549 = assay: Anticancer activity against human A549 cells; format: functional, cell-based
[3] = Antitumour activity against patient-derived human PAT81 cells xenografted in mouse model at 1.6 mg/kg, po bid, 5 days on and 2 days off for 2 weeks; format: functional; settings: PAT81, 120 h, time 5 day, read-out: TGI
[4] = Antitumour activity against patient-derived human PAT160 cells xenografted in mouse model at 1.6 mg/kg, po bid, 5 days on and 2 days off for 2 weeks; format: functional; settings: PAT160, 120 h, time 5 day, read-out: TGI
[5] = Anticancer activity against human HCC15 cells; format: functional, cell-based
NCI-H1355 = assay: Anticancer activity against human NCI-H1355 cells; format: functional, cell-based
[6] = Antitumour activity against human LG0787F cells xenografted in NSG mouse assessed as tumour growth inhibition at 1 mg/kg/day, po bid; format: functional; settings: read-out: TGI
[7] = Oral bioavailability in dog at 5 mg/kg; format: ADME, organism-based, Canis lupus familiaris; settings: in vivo
[8] = Antitumour activity against patient-derived human BR0869F cells xenografted in mouse model at 1.6 mg/kg, po bid, 5 days on and 2 days off for 2 weeks; format: functional; settings: 120 h, time 5 day, read-out: TGI
[9] = Drug concentration at steady state in human LG0787F cells xenografted in NSG mouse at 0.5 mg/kg/day infused continuously over 6 days using Alzet pump; format: ADME, organism-based; settings: in vivo, 144 h, time 6 day
[10] = Metabolic stability in human liver microsomes assessed as parent compound remaining at 0.5 uM after 10 mins; format: ADME, Microsome; settings: read-out: Stability
NCI-H520 = assay: Anticancer activity against human NCI-H520 cells; format: functional, cell-based
[11] = Antitumour activity against patient-derived human BR1367F cells xenografted in mouse model at 1.6 mg/kg, po bid, 5 days on and 2 days off for 2 weeks; format: functional; settings: 120 h, time 5 day, read-out: TGI
[12] = Antitumour activity against human LG0787F cells xenografted in NSG mouse assessed as tumour growth inhibition at 0.5 mg/kg/day infused continuously over 6 days using Alzet pump; format: functional; settings: 144 h, time 6 day, read-out: TGI
SW900 = assay: Anticancer activity against human SW900 cells; format: functional, cell-based
[13] = molecular target: Bromodomain-containing protein 3 (Homo sapiens, UniProt Q15059); assay: Inhibition of human BRD3 measured by TR-FRET assay
Bromodomain-containing protein 3, sequence (Q15059 whole entry): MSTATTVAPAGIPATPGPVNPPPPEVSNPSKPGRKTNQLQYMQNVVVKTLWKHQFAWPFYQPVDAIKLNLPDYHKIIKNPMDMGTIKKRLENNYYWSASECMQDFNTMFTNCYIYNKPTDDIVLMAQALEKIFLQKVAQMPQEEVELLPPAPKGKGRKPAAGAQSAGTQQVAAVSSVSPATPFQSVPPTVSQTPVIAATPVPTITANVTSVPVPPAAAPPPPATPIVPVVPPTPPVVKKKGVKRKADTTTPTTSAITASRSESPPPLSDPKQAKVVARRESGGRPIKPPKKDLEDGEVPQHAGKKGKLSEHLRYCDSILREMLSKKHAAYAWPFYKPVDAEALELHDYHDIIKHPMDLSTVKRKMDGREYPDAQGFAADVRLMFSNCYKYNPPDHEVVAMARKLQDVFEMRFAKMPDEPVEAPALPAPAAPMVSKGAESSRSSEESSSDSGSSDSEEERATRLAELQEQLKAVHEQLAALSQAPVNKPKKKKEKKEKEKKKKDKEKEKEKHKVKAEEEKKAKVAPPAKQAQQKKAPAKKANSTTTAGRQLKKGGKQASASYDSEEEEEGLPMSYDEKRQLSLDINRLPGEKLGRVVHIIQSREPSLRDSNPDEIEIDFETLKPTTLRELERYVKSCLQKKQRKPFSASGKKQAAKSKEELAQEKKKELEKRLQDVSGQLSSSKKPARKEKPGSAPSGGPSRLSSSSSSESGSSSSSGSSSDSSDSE

[14] = AUC in human LG0787F cells xenografted in NSG mouse at 1 mg/kg/day, po qd; format: ADME, organism-based; parameters: dose 1 mg/kg/day, route po; settings: in vivo
NCI-H1703 = assay: Anticancer activity against human NCI-H1703 cells; format: functional, cell-based
[15] = Antitumour activity against human LG0787F cells xenografted in NSG mouse assessed as tumour growth inhibition at 0.25 mg/kg/day, po bid; format: functional; settings: read-out: TGI
DMS-114 = assay: Anticancer activity against human DMS-114 cells; format: functional, cell-based
[16] = Antitumour activity against patient-derived human PAT78 cells xenografted in mouse model at 1.6 mg/kg, po bid, 5 days on and 2 days off for 2 weeks; format: functional; settings: PAT78, 120 h, time 5 day, read-out: TGI
Cytochrome P450 2C9 = Cytochrome P450 2C9 (Homo sapiens, UniProt P11712); assay: Inhibition of CYP2C9 (unknown origin); format: ADME
Cytochrome P450 2C9, sequence (P11712 whole entry): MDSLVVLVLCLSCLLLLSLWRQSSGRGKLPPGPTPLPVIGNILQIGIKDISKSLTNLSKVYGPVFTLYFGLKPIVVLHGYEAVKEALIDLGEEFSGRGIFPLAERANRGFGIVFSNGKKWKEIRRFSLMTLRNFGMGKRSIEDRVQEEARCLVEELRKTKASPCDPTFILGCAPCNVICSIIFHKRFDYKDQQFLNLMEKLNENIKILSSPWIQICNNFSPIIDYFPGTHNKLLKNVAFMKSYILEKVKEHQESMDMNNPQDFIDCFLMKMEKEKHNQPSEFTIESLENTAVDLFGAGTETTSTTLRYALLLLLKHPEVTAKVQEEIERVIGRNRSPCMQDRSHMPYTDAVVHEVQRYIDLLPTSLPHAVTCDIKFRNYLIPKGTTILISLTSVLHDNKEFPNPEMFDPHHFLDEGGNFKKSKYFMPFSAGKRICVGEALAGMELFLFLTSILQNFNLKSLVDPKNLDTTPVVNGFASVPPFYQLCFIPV

[17] = Volume of distribution at steady state in rat at 1 mg/kg, iv; format: ADME, organism-based; settings: in vivo, read-out: Vdss
NCI-H2228 = assay: Anticancer activity against human […] cells; format: functional, cell-based
[18] = Antitumour activity against patient-derived human LG0787F cells xenografted in mouse model at 1.6 mg/kg, po bid, 5 days on and 2 days off for 2 weeks; format: functional; settings: 120 h, time 5 day, read-out: TGI
[19] = Antitumour activity against patient-derived human PAT136 cells xenografted in mouse model at 1.6 mg/kg, po bid, 5 days on and 2 days off for 2 weeks; format: functional; settings: PAT136, 120 h, time 5 day, read-out: TGI
[20] = Drug concentration at steady state in human LG0787F cells xenografted in NSG mouse infused continuously over 6 days using Alzet pump; format: ADME; settings: iv, 144 h, time 6 day
MOLM-13 = assay: Anticancer activity against human MOLM-13 cells; format: functional, cell-based
[21] = Metabolic stability in mouse liver microsomes assessed as parent compound remaining at 0.5 uM after 10 mins; format: ADME, Microsome; settings: read-out: Stability
[22] = Antitumour activity against human JJN3R cells measured after 72 hrs by MTS assay; format: functional, cell-based; settings: JJN-3R
[23] = Permeability coefficient of the compound by PAMPA; format: ADME; settings: read-out: permeability
[24] = molecular target: Voltage-gated inwardly rectifying potassium channel KCNH2 (Homo sapiens, UniProt Q12809); assay: Inhibition of human ERG by patch-clamp assay
Voltage-gated inwardly rectifying potassium channel KCNH2, sequence (Q12809 whole entry): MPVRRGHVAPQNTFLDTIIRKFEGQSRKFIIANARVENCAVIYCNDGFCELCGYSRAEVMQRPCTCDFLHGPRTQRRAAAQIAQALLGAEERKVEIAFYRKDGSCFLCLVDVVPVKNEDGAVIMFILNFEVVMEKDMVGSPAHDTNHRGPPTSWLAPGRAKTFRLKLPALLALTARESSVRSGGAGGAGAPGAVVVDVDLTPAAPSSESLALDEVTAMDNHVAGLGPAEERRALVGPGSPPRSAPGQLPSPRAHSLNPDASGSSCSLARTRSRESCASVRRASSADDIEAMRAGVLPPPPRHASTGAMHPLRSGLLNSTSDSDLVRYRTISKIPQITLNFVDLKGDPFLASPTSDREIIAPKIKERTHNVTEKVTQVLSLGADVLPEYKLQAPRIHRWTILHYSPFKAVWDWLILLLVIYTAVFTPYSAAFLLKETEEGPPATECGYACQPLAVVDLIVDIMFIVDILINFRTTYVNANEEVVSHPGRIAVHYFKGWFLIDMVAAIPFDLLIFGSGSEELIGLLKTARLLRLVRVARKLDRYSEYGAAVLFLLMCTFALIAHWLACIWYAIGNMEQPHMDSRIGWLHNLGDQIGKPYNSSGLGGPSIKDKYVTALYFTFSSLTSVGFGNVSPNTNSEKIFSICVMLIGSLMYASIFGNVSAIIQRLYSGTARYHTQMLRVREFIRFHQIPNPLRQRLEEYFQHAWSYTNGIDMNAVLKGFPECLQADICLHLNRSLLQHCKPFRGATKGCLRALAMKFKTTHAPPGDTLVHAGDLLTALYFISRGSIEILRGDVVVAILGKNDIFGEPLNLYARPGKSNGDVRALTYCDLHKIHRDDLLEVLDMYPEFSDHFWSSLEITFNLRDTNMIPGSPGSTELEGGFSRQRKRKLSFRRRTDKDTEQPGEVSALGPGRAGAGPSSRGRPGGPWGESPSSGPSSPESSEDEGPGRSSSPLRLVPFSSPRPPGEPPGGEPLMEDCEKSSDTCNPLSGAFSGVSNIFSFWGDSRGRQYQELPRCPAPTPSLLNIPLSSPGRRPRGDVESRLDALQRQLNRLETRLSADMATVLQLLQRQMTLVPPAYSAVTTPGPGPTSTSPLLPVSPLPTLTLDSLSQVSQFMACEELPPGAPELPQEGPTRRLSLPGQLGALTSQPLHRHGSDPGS

[25] = Volume of distribution at steady state in dog at 0.1 mg/kg, iv; format: ADME, organism-based, Canis lupus familiaris; settings: in vivo, read-out: Vdss
[26] = Anticancer activity against human JJN3R cells; format: functional, cell-based; settings: JJN-3R
[27] = Elimination half life in monkey at 0.1 mg/kg, iv; format: ADME, organism-based, Macaca mulatta; settings: rhesus monkey, in vivo, read-out: beta t1/2 (converted)
[28] = Total plasma clearance in dog at 0.1 mg/kg, iv; format: ADME, organism-based, Canis lupus familiaris
HCC44 = assay: Anticancer activity against human HCC44 cells; format: functional, cell-based
NCI-H211 [29] = assay: Anticancer activity against human NCI-H211 cells; format: functional, cell-based
[30] = Oral bioavailability in monkey at 5 mg/kg; format: ADME, organism-based, Macaca mulatta; settings: rhesus monkey, in vivo
[31] = Inhibition of c-MYC expression in human JJN3R cells measured after 4 hrs; format: functional, cell-based; settings: JJN-3R
NCI-H211 [32] = assay: Anticlonogenic activity against human NCI-H211 cells; format: functional, cell-based
[33] = AUC (0 to 7 hrs) in mouse at 30 mg/kg, po; format: ADME, organism-based; parameters: time < 7 hr, dose 30 mg/kg, route po; settings: in vivo
NCI-H441 = assay: Anticancer activity against human NCI-H441 cells; format: functional, cell-based
[34] = molecular target: Bromodomain-containing protein 4 (Homo sapiens, UniProt O60885); assay: Inhibition of human BRD4 (1 to 477 residues) measured after 60 mins by TR-FRET assay
[35] = Antitumour activity against patient-derived human PAT149 cells xenografted in mouse model at 1.6 mg/kg, po bid, 5 days on and 2 days off for 2 weeks; format: functional; settings: PAT149, 120 h, time 5 day, read-out: TGI
[36] = Total plasma clearance in rat at 1 mg/kg, iv; format: ADME, organism-based
[37] = Cmax in human LG0787F cells xenografted in NSG mouse at 1 mg/kg/day, po qd; format: ADME, organism-based; parameters: dose 1 mg/kg/day, route po; settings: in vivo
[38] = AUC in human LG0787F cells xenografted in NSG mouse at 0.25 mg/kg/day, po bid; format: ADME, organism-based; parameters: dose 0.25 mg/kg/day, route po; settings: in vivo
OCI-AML-3 = assay: Anticancer activity against human OCI-AML3 cells; format: functional, cell-based
[39] = Elimination half life in dog at 0.1 mg/kg, iv; format: ADME, organism-based, Canis lupus familiaris; settings: in vivo, read-out: beta t1/2 (converted)

Cc1nnn(C)c1-c1cnc2c3ccc(C(C)(C)O)cc3n([C@H](c3ccccc3)C3CCOCC3)c2c1 [EZOBRESIB]
IC50 (SK-MES-1): > 500 nM | clearance [1]: 32 mL/min/kg | inhibition in vivo at 1.6 mg/kg [2]: 85% | IC50 (A549): > 500 nM | inhibition in vivo at 1.6 mg/kg [3]: 112% | inhibition in vivo at 1.6 mg/kg [4]: 9% | IC50 [5]: 365 nM | IC50 (NCI-H1355): > 500 nM | inhibition in vivo at 1 mg/kg/day [6]: 70% | bioavailability [7]: 59% | inhibition in vivo at 1.6 mg/kg [8]: 56% | Css [9]: 10 nM | remaining at 10 min, 0.5 µM [10]: 82% | IC50 (NCI-H520): > 500 nM | inhibition in vivo at 1.6 mg/kg [11]: 68% | inhibition in vivo at 0.5 mg/kg/day [12]: 62% | IC50 (SW900): > 500 nM | IC50 [13]: 1.1 nM | AUC [14]: 0.6 µM·h | IC50 (NCI-H1703): > 500 nM | inhibition in vivo at 0.25 mg/kg/day [15]: 46% | IC50 (DMS-114): 0.32 nM | inhibition in vivo at 1.6 mg/kg [16]: 47% | IC50 (Cytochrome P450 2C9): 11800 nM | Vd [17]: 4.3 L/kg | IC50 (NCI-H2228): 166 nM | inhibition in vivo at 1.6 mg/kg [18]: 110% | inhibition in vivo at 1.6 mg/kg [19]: 92% | Css [20]: 17 nM | IC50 (MOLM-13): 1.7 nM | remaining at 10 min, 0.5 µM [21]: 66% | IC50 [22]: 3.6 nM | Papp [23]: 66.1 ×10⁻⁶ cm/s | IC50 [24]: 28000 nM | Vd [25]: 5.3 L/kg | IC50 [26]: 0.7 nM | half-life [27]: 2 h | clearance [28]: 15 mL/min/kg | IC50 (HCC44): 2.7 nM | IC50 (NCI-H211 [29]): 0.3 nM | bioavailability [30]: 16% | IC50 [31]: 0.7 nM | IC50 (NCI-H211 [32]): 5.6 nM | AUC(0-t) at 7 h [33]: 49.6 µM·h | IC50 (NCI-H441): 118 nM | IC50 [34]: 1.1 nM | inhibition in vivo at 1.6 mg/kg [35]: 101% | clearance [36]: 41 mL/min/kg | Cmax [37]: 150 nM | AUC [38]: 0.3 µM·h | IC50 (OCI-AML-3): 0.7 nM | half-life [39]: 5.6 h

— ChEMBL document CHEMBL5053512, “Discovery and Preclinical Pharmacology of an Oral Bromodomain and Extra-Terminal (BET) Inhibitor Using Scaffold-Hopping and Structure-Guided Drug Design” (J Med Chem, 2021)
